What was measured:
[1] = Growth inhibition of human HL60(TB) cells after 48 hrs by SRB assay; assay type: functional, HL-60(TB); details: Homo sapiens, HL-60, 48 h
K562 = assay: Growth inhibition of human K562 cells after 48 hrs by SRB assay; assay type: functional; details: K562, 48 h
SF-295 = assay: Growth inhibition of human SF295 cells after 48 hrs by SRB assay; assay type: functional; details: SF-295, 48 h
LOX IMVI = assay: Growth inhibition of human LOX IMVI cells after 48 hrs by SRB assay; assay type: functional
UACC-62 = assay: Growth inhibition of human UACC62 cells after 48 hrs by SRB assay; assay type: functional; details: UACC-62, 48 h
MDA-MB-435 = assay: Growth inhibition of human MDA-MB-435 cells after 48 hrs by SRB assay; assay type: functional; details: MDA-MB-435, 48 h
[2] = read-out: LC50 (the source's name)

For `Cc1ccc(C2=Nc3c(N)ncnc3NC(c3ccc4c(c3)OCO4)C2)cc1` (racemic), the GI50 [1] was 0.72 µM, the CC50 [1, 2] was over 100 µM and the GI50 (K562) was 4.19 µM. It also gave an LC50 (K562) of over 100 µM, a GI50 (SF-295) of 4.98 µM and an LC50 (SF-295) of over 100 µM. The GI50 (LOX IMVI) was 6.38 µM, the CC50 (LOX IMVI; [2]) was 81.5 µM and the GI50 (UACC-62) was 4.09 µM. It also gave a CC50 (UACC-62; [2]) of over 100 µM, a GI50 (MDA-MB-435) of 1.15 µM and a CC50 (MDA-MB-435; [2]) of 90.8 µM.

Source: ChEMBL document CHEMBL1156714, “Microwave induced synthesis of novel 8,9-dihydro-7H-pyrimido[4,5-b][1,4]diazepines as potential antitumor agents” (2008)
